From paper PMC8590616 (European Journal of Pharmacology, 2021)
Several values for one entry are separate records, joined by “and”; a condition that tells them apart may be missing. Equal entries are not always repeated. Where two headings read alike, the source gives them in different places.

Key:
[1] = cited from earlier work
[2] = test system: peak L-type Ca2+ current (ICaL) in Pluricyte cardiomyocytes; test: hiPSC-CM β-escin-perforated voltage-clamp: peak ICaL; type: cell-based; settings: Homo sapiens, Cardiomyocyte; for IC50: read-out: ICaL IC50
ICaL [3] = settings: read-out: ICaL IC50; CHO, RT ref Delaunois et al. (2021); cited from earlier work
INa peak [4] = settings: read-out: INa peak IC50; HEK293 ref Jordaan et al. (2021); cited from earlier work
Ito = settings: read-out: Ito IC50; rat ventricular myocytes ref Wagner et al. (2010); cited from earlier work
hERG1 [5] = target: T1, hERG1 (Homo sapiens, UniProt Q12809); test: Manual whole-cell patch-clamp, standard 2-step hERG protocol at RT, HEK293T; settings: for Hill coefficient nH, hERG inhibition: manual patch-clamp, RT
hNav1.5 [6] = target: T2, hNav1.5 (Homo sapiens, UniProt Q14524); test: Peak INa at PT, manual patch-clamp, HEK293 cells; type: cell-based; settings: for INa peak Hill coefficient nH: PT
hKir2.1 = target: T3, hKir2.1 (Homo sapiens, UniProt P63252); settings: HEK-293T, read-out: IK1 (hKir2.1) IC50
T3 sequence (P63252 1-427): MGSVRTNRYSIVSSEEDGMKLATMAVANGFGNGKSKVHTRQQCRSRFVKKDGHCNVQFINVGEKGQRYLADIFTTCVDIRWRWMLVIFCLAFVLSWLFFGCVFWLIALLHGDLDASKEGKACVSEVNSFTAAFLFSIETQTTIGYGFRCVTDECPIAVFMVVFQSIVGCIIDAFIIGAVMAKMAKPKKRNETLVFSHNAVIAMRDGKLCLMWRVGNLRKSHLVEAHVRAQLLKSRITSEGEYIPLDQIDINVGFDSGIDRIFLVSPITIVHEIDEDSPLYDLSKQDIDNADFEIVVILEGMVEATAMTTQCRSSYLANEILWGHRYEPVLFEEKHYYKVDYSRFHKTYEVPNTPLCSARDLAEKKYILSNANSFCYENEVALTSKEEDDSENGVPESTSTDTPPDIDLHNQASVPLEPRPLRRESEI

[7] = test system: steady funny current (If) in Pluricyte cardiomyocytes; test: hiPSC-CM β-escin-perforated voltage-clamp: steady funny current; type: cell-based; settings: Homo sapiens, Cardiomyocyte, read-out: If IC50
IKr [8] = settings: read-out: IKr IC50, cited from earlier work
hKv7.1+hMinK = hKv7.1+hMinK (Homo sapiens, UniProt P51787); test: IKs double-step voltage protocol, HEK293 cells; type: cell-based; settings: for effect on plateau IKs level: highest concentration applied (100 μM)
IK1 = settings: read-out: IK1 IC50; HEK293 ref Noujaim et al. (2011); cited from earlier work
INa late = settings: read-out: INa late IC50, CHO, cited from earlier work
IKr [9] = settings: read-out: IKr IC50; Xenopus laevis oocytes ref Sánchez-Chapula et al. (2002); cited from earlier work
INa peak [10] = settings: read-out: INa peak IC50; cat Purkinje fibers ref Sánchez-Chapula et al. (2001); cited from earlier work
INa peak [11] = settings: human atrial myocytes ref Borsini et al. (2012), cited from earlier work
hNav1.5 [12] = target: T2, hNav1.5; test: Peak INa in presence of ATX-II 20 nM at RT, HEK293 cells; settings: for IC50: INa peak IC50, hNav1.5, ATX-II 20 nM, Hill fit
hNav1.5 [13] = target: T2, hNav1.5; test: Late INa in presence of ATX-II 20 nM at RT, HEK293 cells; settings: for IC50: INa late IC50, hNav1.5, ATX-II 20 nM, end of tail current at 0 mV
INa peak [14] = settings: read-out: INa peak IC50; CHO, PT ref Delaunois et al. (2021); cited from earlier work
hERG1 [15] = target: T1, hERG1; test: Manual patch-clamp, standard 2-step hERG protocol at PT; type: cell-based
If = settings: read-out: If IC50, cited from earlier work
IKs = settings: human atrial myocytes ref Borsini et al. (2012), cited from earlier work
ICaL [16] = settings: read-out: ICaL IC50; HEK293 ref Jordaan et al. (2021); cited from earlier work
[17] = test system: peak voltage-dependent Na+ current (INa) in Pluricyte cardiomyocytes; test: hiPSC-CM β-escin-perforated voltage-clamp: peak INa; type: cell-based; settings: Homo sapiens, Cardiomyocyte; for IC50: read-out: peak INa IC50 in hiPSC-CM
hERG1 [18] = target: T1, hERG1; test: Automated patch-clamp; settings: for Hill coefficient nH, hERG inhibition: automated patch-clamp, RT
ICaL [19] = settings: read-out: ICaL IC50; cat Purkinje fibers ref Sánchez-Chapula et al. (2001); cited from earlier work
hERG (peak IKr) = test: hiPSC-CM β-escin-perforated voltage-clamp: peak IKr; type: cell-based, human; settings: human
[20] = test system: peak hERG current (IKr) in Pluricyte cardiomyocytes; test: as above; type: cell-based, human; settings: 5 μM; hiPSC-CM; individual experiments and average ± SD
IKr [21] = settings: read-out: IKr IC50, cited from earlier work; remark: listed apart in the source
IKr [22] = settings: cited from earlier work
ICaL [23] = settings: cited from earlier work
[24] = standard 12-compounds panel ref Dutta et al., (2017)
[25] = read-out: peak ICaL, % of control values
[26] = CHO, PT ref Delaunois et al. (2021)
[27] = CHO, PT ref TeBay et al. (2021)
[28] = HEK293, RT ref Delaunois et al. (2021)
[29] = read-out: peak INa, % of control values
[30] = 3 μM, guinea pig SAN cells ref Capel et al. (2015)

T1 sequence (Q12809 whole entry): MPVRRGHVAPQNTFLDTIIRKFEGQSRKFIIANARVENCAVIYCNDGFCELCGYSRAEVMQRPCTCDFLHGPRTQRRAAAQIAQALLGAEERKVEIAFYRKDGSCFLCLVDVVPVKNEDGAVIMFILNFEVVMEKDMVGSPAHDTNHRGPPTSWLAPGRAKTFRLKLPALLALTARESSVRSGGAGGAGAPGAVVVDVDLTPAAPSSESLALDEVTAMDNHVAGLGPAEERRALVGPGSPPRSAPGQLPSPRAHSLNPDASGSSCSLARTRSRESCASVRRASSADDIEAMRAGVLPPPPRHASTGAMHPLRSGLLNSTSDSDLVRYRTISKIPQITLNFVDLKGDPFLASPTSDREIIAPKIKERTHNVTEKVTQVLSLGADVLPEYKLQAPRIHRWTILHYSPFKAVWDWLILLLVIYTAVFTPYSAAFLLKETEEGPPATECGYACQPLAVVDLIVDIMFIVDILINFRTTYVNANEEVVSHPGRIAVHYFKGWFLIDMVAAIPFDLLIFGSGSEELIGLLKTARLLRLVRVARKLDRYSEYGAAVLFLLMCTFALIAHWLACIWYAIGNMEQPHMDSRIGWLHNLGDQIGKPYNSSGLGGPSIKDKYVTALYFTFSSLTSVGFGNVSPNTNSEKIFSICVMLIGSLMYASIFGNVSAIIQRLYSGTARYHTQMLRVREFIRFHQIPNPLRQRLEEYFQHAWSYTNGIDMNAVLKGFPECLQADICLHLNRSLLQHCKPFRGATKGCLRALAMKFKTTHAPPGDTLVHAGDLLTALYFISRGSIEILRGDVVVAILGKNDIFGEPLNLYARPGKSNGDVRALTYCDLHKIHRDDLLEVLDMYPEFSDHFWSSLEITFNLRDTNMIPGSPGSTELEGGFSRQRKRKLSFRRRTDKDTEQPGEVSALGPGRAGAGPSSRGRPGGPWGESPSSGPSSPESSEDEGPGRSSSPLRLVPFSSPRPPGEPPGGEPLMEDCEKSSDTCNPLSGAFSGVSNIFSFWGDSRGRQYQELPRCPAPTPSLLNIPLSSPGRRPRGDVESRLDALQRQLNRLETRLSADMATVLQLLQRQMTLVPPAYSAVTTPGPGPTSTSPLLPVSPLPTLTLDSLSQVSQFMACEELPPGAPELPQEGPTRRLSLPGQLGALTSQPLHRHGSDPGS
T2 sequence (Q14524 whole entry): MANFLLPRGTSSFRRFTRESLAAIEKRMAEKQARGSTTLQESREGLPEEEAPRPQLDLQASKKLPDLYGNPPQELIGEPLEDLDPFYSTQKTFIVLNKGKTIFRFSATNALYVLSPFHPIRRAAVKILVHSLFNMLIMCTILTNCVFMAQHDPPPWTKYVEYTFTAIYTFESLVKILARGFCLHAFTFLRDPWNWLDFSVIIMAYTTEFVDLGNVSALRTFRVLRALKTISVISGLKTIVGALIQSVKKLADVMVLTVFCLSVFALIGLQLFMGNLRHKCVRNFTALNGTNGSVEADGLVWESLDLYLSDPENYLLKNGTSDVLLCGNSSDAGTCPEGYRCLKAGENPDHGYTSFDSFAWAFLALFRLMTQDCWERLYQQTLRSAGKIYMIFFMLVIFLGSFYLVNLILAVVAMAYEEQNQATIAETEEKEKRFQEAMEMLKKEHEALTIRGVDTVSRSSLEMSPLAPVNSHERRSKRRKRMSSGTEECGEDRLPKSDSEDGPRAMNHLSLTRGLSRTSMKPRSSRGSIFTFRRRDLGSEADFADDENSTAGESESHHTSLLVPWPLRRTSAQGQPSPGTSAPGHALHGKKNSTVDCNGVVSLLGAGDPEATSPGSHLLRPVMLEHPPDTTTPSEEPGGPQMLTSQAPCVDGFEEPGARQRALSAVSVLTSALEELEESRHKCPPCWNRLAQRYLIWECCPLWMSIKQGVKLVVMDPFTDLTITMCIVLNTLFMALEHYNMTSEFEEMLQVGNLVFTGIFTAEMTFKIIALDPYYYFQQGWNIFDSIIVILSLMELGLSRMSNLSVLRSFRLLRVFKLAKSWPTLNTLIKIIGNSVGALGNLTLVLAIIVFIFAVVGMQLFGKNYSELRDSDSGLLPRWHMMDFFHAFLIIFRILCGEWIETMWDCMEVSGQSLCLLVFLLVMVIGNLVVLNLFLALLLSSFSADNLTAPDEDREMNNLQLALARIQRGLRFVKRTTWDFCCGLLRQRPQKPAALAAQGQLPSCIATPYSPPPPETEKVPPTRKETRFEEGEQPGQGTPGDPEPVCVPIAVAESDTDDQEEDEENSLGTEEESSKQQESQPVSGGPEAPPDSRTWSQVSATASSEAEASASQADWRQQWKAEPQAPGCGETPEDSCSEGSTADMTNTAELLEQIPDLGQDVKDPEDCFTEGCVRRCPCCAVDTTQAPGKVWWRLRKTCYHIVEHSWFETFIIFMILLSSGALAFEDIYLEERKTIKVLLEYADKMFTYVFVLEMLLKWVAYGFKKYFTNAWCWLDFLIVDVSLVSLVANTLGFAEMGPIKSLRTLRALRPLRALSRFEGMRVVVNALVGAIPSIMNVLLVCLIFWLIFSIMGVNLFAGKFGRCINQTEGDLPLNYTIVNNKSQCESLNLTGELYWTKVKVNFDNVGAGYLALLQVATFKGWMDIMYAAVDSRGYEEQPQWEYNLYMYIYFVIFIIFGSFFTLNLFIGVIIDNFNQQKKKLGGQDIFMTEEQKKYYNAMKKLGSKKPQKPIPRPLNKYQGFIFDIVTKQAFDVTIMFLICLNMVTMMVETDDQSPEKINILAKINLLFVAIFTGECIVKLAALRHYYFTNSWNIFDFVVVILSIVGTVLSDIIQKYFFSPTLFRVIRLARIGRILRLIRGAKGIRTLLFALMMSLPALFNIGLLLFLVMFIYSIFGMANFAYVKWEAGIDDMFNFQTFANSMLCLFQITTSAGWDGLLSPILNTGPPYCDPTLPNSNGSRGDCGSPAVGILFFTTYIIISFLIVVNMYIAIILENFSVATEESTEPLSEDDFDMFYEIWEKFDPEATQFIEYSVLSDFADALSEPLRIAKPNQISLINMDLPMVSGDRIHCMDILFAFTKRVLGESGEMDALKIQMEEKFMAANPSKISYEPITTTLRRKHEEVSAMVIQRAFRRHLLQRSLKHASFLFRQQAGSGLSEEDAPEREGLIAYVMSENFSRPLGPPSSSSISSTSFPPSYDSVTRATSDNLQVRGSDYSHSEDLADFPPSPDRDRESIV
hKv7.1+hMinK, sequence (P51787 whole entry): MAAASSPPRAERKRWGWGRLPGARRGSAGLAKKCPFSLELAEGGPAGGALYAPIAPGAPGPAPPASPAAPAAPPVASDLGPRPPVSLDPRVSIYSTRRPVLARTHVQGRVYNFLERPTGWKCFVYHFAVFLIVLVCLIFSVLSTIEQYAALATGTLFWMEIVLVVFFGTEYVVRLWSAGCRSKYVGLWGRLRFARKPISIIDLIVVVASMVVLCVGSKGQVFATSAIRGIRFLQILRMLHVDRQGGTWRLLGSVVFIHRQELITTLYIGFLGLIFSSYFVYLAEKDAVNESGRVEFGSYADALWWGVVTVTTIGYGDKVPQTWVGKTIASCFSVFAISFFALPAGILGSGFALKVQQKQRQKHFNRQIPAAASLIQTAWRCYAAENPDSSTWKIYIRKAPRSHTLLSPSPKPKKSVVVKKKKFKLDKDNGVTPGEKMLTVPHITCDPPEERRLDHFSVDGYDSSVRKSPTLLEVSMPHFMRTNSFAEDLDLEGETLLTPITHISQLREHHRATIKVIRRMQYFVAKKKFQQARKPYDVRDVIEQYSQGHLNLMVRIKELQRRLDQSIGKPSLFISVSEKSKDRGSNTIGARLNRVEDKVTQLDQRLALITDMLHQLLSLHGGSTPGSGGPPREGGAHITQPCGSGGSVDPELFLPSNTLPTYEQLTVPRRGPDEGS

Cc1cccc(C)c1OCC(C)N (stereo not shown) [Mexiletine]
Cmax [1, 24]: 4130 nM

CC(C)NCC(O)c1ccc(NS(C)(=O)=O)cc1 (stereo not shown) [Sotalol]
Cmax [1, 24]: 14700 nM

CC(C)(C)c1ccc(C(O)CCCN2CCC(C(O)(c3ccccc3)c3ccccc3)CC2)cc1 (stereo not shown) [Terfenadine]
Cmax [1, 24]: 4 nM

CN(C)CCCN1c2ccccc2Sc2ccc(Cl)cc21 [Chlorpromazine]
Cmax [1, 24]: 38 nM

CCN(CC)CCCC(C)Nc1ccnc2cc(Cl)ccc12 (stereo not shown) [chloroquine]
IC50 [2]: 30.7 µM
activity at 5 µM [2, 25]: 86 ± 9%
IC50 (ICaL [3]): 17.9 µM
IC50 (INa peak [4]): 8.48 µM
IC50 (Ito): 4600 µM
Hill coefficient nH, hERG inhibition (hERG1 [5]): 0.90
IC50 (hNav1.5 [6]): 39.3 µM
INa peak Hill coefficient nH (hNav1.5 [6]): 0.97
potency estimated from few doses (hKir2.1): 5.86 µM
IC50 [7]: > 162 µM
IC50 (IKr [8]; CHO ref Jordaan et al. (2021)): 7.77 µM
IC50 (IKr [8]; [26]): 1.03 µM
IC50 (IKr [8]; [27]): 1.47 µM
IC50 (hKv7.1+hMinK): > 100 µM
effect on plateau IKs level (hKv7.1+hMinK): only slightly inhibited
IC50 (IK1): 1.2 µM
IC50 (INa late; PT ref Delaunois et al. (2021)): 11.6 µM
IC50 (INa late; RT ref Delaunois et al. (2021)): 109 µM
IC50 (IKr [9]): 8.4 µM
IC50 (INa peak [10]): 12.2 µM
Cmax ([1]; Table 2 ref Borsini et al. (2012)): 410 nM
Cmax, maximal free plasma therapeutic concentration ([1]; usual doses ref Borsini et al., 2012): 0.41 µM
INa peak % block (INa peak [11]; 30 μM): 42.6%
IC50 (INa peak [11]; read-out: INa peak IC50): 40.4 µM
INa peak Hill coefficient nH (hNav1.5 [12]): 0.98
IC50 (hNav1.5 [12]): 159 µM
INa late Hill coefficient nH (hNav1.5 [13]): 0.85
IC50 (hNav1.5 [13]): 30.4 µM
IC50 (INa peak [14]): 14 µM
Hill coefficient nH, hERG inhibition (hERG1 [15]): 1.25
IC50 (If; [28]): 228 µM
IKs % block (IKs; 10 μM): 8%
IC50 (IKs; read-out: IKs IC50): 115 µM
IC50 (ICaL [16]): 3.05 µM
IC50 [17]: 45 µM
inhibition at 5 µM ([17]; read-out: peak INa average inhibition): 10%
activity at 5 µM [17, 29]: 90 ± 12%
Hill coefficient nH, hERG inhibition (hERG1 [18]): 1.36
IC50 (ICaL [19]): 21.2 µM
activity at 5 µM (hERG (peak IKr)): 37.2%
potency estimated from few doses (hERG (peak IKr)): 2.96 µM
peak IKr % inhibition [20]: 62.78 ± 11.12%
IC50 (IKr [21]; HEK293, RT ref Borsini et al. (2012)): 0.96 µM
IC50 (IKr [21]; HEK293, RT ref Traebert et al. (2004)): 2.5 µM

COc1ccccc1OCC(O)CN1CCN(CC(=O)Nc2c(C)cccc2C)CC1 (stereo not shown) [Ranolazine]
Cmax [1, 24]: 1950 nM

Cc1nccn1CC1CCc2c(c3ccccc3n2C)C1=O (stereo not shown) [Ondansetron]
Cmax [1, 24]: 139 nM

CCN(CCO)CCCC(C)Nc1ccnc2cc(Cl)ccc12 (stereo not shown) [hydroxychloroquine]
IC50 [2]: 90 µM
activity at 10 µM [2, 25]: 90 ± 12%
IC50 (ICaL [3]): 66.3 µM
IC50 (INa peak [4]): > 300 µM
IC50 (hERG1 [5]): 4.79 µM
Hill coefficient nH, hERG inhibition (hERG1 [5]): 0.85
IC50 (hNav1.5 [6]): 42.4 µM
INa peak Hill coefficient nH (hNav1.5 [6]): 1.02
potency estimated from few doses (hKir2.1): 29.3 µM
IC50 [7]: > 990 µM
IC50 (IKr [8]; CHO ref Jordaan et al. (2021)): 9.7 µM
IC50 (IKr [8]; [26]): 2.66 µM
IC50 (IKr [8]; [27]): 3.78 µM
IC50 (IKr [8]; CHO, RT ref Delaunois et al. (2021)): 6.97 µM
IC50 (hKv7.1+hMinK): > 100 µM
effect on plateau IKs level (hKv7.1+hMinK): only slightly inhibited
IC50 (INa late; PT ref Delaunois et al. (2021)): 21.4 µM
IC50 (INa late; RT ref Delaunois et al. (2021)): 92.9 µM
Cmax ([1]; Table 2 ref Yao et al. (2020)): 495 nM
Cmax, maximal free plasma therapeutic concentration ([1]; usual doses ref Yao et al., 2020): 0.495 μM and 215 ng/ml
Cmax, maximal free plasma therapeutic concentration ([1]; usual doses ref Yao et al., 2020, listed as Hydroxychloroquine): 0.495 μM and 215 ng/ml
INa peak Hill coefficient nH (hNav1.5 [12]): 0.81
IC50 (hNav1.5 [12]): 96.2 µM
INa late Hill coefficient nH (hNav1.5 [13]): 0.89
IC50 (hNav1.5 [13]): 64.9 µM
IKr % block (IKr [22]; [30]): 35%
IC50 (IKr [22]; read-out: IKr IC50, guinea pig SAN cells, PT ref Capel et al. (2015)): 5.6 µM
IC50 (INa peak [14]): 17 µM
IC50 (If; HEK293, PT ref Delaunois et al. (2021)): > 300 µM
IC50 (If; [28]): 372 µM
IC50 (ICaL [16]): 7.64 µM
IC50 [17]: 52.5 µM
activity at 10 µM [17, 29]: 84 ± 16%
IC50 (hERG1 [18]): 3.42 µM
Hill coefficient nH, hERG inhibition (hERG1 [18]): 1.02
ICaL % block (ICaL [23]; [30]): 12%
IC50 (ICaL [23]; read-out: ICaL IC50, guinea pig SAN cells, PT ref Capel et al. (2015)): 22 µM

COc1ccc([C@@H]2Sc3ccccc3N(CCN(C)C)C(=O)[C@@H]2OC(C)=O)cc1 [Diltiazem]
Cmax [1, 24]: 122 nM
